Test results taken from the NIST ThermoML archive (doi:10.1021/je050162g).
Numbers after ± are expanded uncertainties.

Experiments:
[1] = Liquid; for viscosity / speed of sound: 101 kPa; for viscosity: Capillary tube (Ostwald / Ubbelohde) method; for speed of sound: Linear variable-path acoustic interferometer; for mass density: 101.33 kPa, Pycnometric method
[2] = xn = mol fraction of the nth substance listed; conditions: 101 kPa, Liquid, x1 = 1; for viscosity: Capillary tube (Ostwald / Ubbelohde) method; for excess molar volume: Direct dilatometry; for speed of sound: Linear variable-path acoustic interferometer

Row | Compound | viscosity ([1]; 303.15 K) [mPa·s] | speed of sound ([1]; 303.15 K) [m/s] | mass density ([1]; 303.15 K) [kg/m3] | viscosity ([1]; 308.15 K) [mPa·s] | speed of sound ([1]; 308.15 K) [m/s] | mass density ([1]; 308.15 K) [kg/m3] | viscosity ([1]; 313.15 K) [mPa·s] | speed of sound ([1]; 313.15 K) [m/s] | mass density ([1]; 313.15 K) [kg/m3] | vapor or sublimation pressure ([1]; 410 K) [kPa] | viscosity ([2]; 303.15 K) [mPa·s] | excess molar volume ([2]; 303.15 K) [m3/mol] | speed of sound ([2]; 303.15 K) [m/s] | viscosity ([2]; 308.15 K) [mPa·s] | excess molar volume ([2]; 308.15 K) [m3/mol] | speed of sound ([2]; 308.15 K) [m/s] | viscosity ([2]; 313.15 K) [mPa·s] | excess molar volume ([2]; 313.15 K) [m3/mol] | speed of sound ([2]; 313.15 K) [m/s] | vapor or sublimation pressure ([1]; 344.68 K) [kPa]
1 | Cc1ccc(C)cc1 [1,4-dimethylbenzene] | 0.566 ± 0.016 | 1283.7 ± 5.2 | 852.3 ± 2.3 | 0.537 ± 0.015 | 1271 ± 5.2 | 847.9 ± 2.3 | 0.513 ± 0.015 | 1260 ± 5.2 | 843.6 ± 2.3 | 97.3 ± 3 | – | – | – | – | – | – | – | – | – | –
2 | Cc1ccc(C)cc1 [1,4-dimethylbenzene] + C=COC(C)=O | – | – | – | – | – | – | – | – | – | – | 0.566 ± 0.016 | 0 ± 6e-09 | 1283.7 ± 5.2 | 0.537 ± 0.015 | 0 ± 6e-09 | 1271 ± 5.2 | 0.513 ± 0.015 | 0 ± 6e-09 | 1260 ± 5.2 | –
3 | C=COC(C)=O [vinyl acetate] | 0.384 ± 0.012 | 1095.9 ± 5.2 | 918 ± 6.8 | 0.361 ± 0.011 | 1072.5 ± 5.1 | 904.2 ± 6.7 | 0.332 ± 0.011 | 1055.7 ± 5.1 | 891.8 ± 6.7 | – | – | – | – | – | – | – | – | – | – | 97.3 ± 3
